Experimental data reported in patent US8618082B2, “Lupeol anti-tumor agent and uses thereof” (Wisconsin Alumni Research Foundation, priority 2004, dated 2013).

Tests used:
epidermal COX-2 protein = assay: TPA-induced epidermal COX-2 protein expression (western blot); type: in vivo, mouse
Procedure: FIG. 4. Inhibitory effect of Lupeol on TPA-induced epidermal ODC, iNOS and COX-2 protein expression in CD-1 mice: At different times after treatment, the animals were sacrificed, epidermal protein lysate was prepared, and ODC and COX-2 protein expression were determined. Equal loading of protein was confirmed by stripping the immunoblot and reprobing it for β-actin. The immunoblots shown here are representative of three independent experiments with similar results. The values above each lane indicate relative density of the band normalized to β-actin.
The animals were shaved on the dorsal side of the skin, divided into four groups and treated topically on the shaved area with either 0.4 ml vehicle (acetone), or TPA (3.2 nmol/0.4 ml acetone/animal, v/v), or Lupeol (1 or 2 mg/0.2 ml acetone/animal, w/v) followed 30 min later with TPA (3.2 nmol/0.2 ml acetone/animal). Animals were sacrificed at different times point i.e. 6, 12, 24 and 48 h post TPA treatment. The epidermis was separated from the whole skin and homogenized in 0.1 M Tris-HCl buffer (pH 7.2) using a Polytron tissue homogenizer (Brinkmann Instruments, Westbury, N.Y., USA) at 100,000×g supernatant, and microsomal fractions were prepared as described earlier (Katiyar and Mukhtar, 1997). The sample of 6 h treatment group was used to assess the ODC activity as this time point has previously been shown for optimal induction of the enzyme (Katiyar er al., 1996).
Epidermis from the whole skin was separated as described earlier (Katiyar et al., 1999) and was homogenized in ice-cold lysis buffer [50 mM Tris-HCl, 150 mM NaCl, 1 mM EGTA, 1 mM EDTA, 20 mM NaF, 100 mM Na3VO4, 0.5% NP-40, 1% Triton X-100, 1 mM PMSF (pH 7.4)] with freshly added protease inhibitor cocktail, Protease Inhibitor Cocktail Set III (Calbiochem, La Jolla, Calif., USA). The homogenate was then centrifuged at 14,000×g for 25 minutes at 4° C. and the supernatant (total cell lysate) was collected, aliquoted and stored at −80° C. For the preparation of nuclear lysate, 0.2 g of the epidermis was homogenized in 1 ml of ice-cold phosphate-buffered saline (pH 7.6) and centrifuged at 12,000×g for 5 min at 4° C. […] The protein content in the lysates was measured by DC BioRad assay (BioRad Laboratories, Hercules, Calif.) as per the manufacturer's protocol.
For western blot analysis, 40 μg of the protein was resolved over 8-12% polyacrylamide gels and transferred to a nitrocellulose membrane. […] This was followed by incubation with anti-mouse or anti-rabbit secondary antibody horse-radish peroxidase (Amersham Life Sciences, Inc., USA) for 1 h and then washed several times and detected by chemiluminescence ECL kit, (Amersham Life Sciences, Inc., USA) and autoradiography using XAR-5 film obtained from Eastman Kodak Co. (Rochester, N.Y., USA). […]

IKKα protein = assay: TPA-induced activation of IKKα (western blot); type: in vivo, mouse; conditions: highest dose of Lupeol, 12 h time point
Procedure: FIG. 6. Inhibitory effect of Lupeol on TPA-induced activation of IKKα, and phosphorylation and degradation of IκBα in CD-1 mice: At different times after treatment, the animals were sacrificed, epidermal cytosolic was prepared, and protein expression was determined. Equal loading was confirmed by stripping the immunoblot and reprobing it for β-actin. The immunoblots shown here are representative of three independent experiments with similar results. The values above each lane indicate relative density of the band normalized to β-actin.
The animals were shaved on the dorsal side of the skin, divided into four groups and treated topically on the shaved area with either 0.4 ml vehicle (acetone), or TPA (3.2 nmol/0.4 ml acetone/animal, v/v), or Lupeol (1 or 2 mg/0.2 ml acetone/animal, w/v) followed 30 min later with TPA (3.2 nmol/0.2 ml acetone/animal). […]
Epidermis from the whole skin was separated as described earlier (Katiyar et al., 1999) and was homogenized in ice-cold lysis buffer [50 mM Tris-HCl, 150 mM NaCl, 1 mM EGTA, 1 mM EDTA, 20 mM NaF, 100 mM Na3VO4, 0.5% NP-40, 1% Triton X-100, 1 mM PMSF (pH 7.4)] with freshly added protease inhibitor cocktail, Protease Inhibitor Cocktail Set III (Calbiochem, La Jolla, Calif., USA). […] The protein content in the lysates was measured by DC BioRad assay (BioRad Laboratories, Hercules, Calif.) as per the manufacturer's protocol. […]

C=C(C)[C@@H]1CC[C@]2(C)CC[C@]3(C)[C@H](CC[C@@H]4[C@@]5(C)CC[C@H](O)C(C)(C)[C@@H]5CC[C@]43C)[C@@H]12 [Lupeol, Lup-20(29)-en-3β-ol]
inhibition in TPA-caused increased epidermal COX-2 protein expression (epidermal COX-2 protein; Lupeol 1 mg/animal): 40%
TPA-induced COX-2 protein level (epidermal COX-2 protein; Lupeol 2 mg/animal): restored the level of TPA-induced COX-2 protein almost to its basal level
epidermal COX-2 protein expression after Lupeol alone (epidermal COX-2 protein; Lupeol alone 2 mg): did not produce any change
inhibition in TPA induced activation of IKKα protein (IKKα protein): ~95%
